Laboratory results taken from US20240277713A1 (Kadmon Corporation, LLC, priority 2022, published 2024).
Marks after values point to notes of the source that are not given here.

How the values were obtained:
bacterial = assay: in vitro bacterial mutagenicity (Ames) assay; assay type: cell-based
Sprague-Dawley rats = assay: Embryo-fetal developmental toxicity study in Sprague-Dawley rats (Example 3)
Procedure: For this study, a total of 140 time-mated female rats (approximately 8 to 10 weeks of age) were obtained from Charles River Laboratories, Raleigh, North Carolina, and acclimated from the time of arrival until the time of dosing on GD 6. During the acclimation period, the animals were observed twice daily with respect to general health and any signs of disease. All animals were given a detailed clinical examination and body weights were recorded prior to selection. […] Food consumption was collected during the acclimation period.
Animals received in-life and postmorten evaluations. […] All fetuses were given an external and visceral or skeletal examination.
Detailed clinical observations were made daily from GD 6 through 20 (4 hours±1 hour postdose on dosing days).
Food consumption for main study animals was measured and recorded on the corresponding body weight days and calculated for the same intervals.
The placentae were examined grossly.
The foci, if detected, were considered early resorptions, and data from this female were included in mean calculations

Structure (SMILES): CC(C)NC(=O)COc1cccc(-c2nc(Nc3ccc4[nH]ncc4c3)c3ccccc3n2)c1 [belumosudil, 2-{3-[4-(1H-indazol-5-ylamino)-2-quinazolinyl]phenoxy}-N-(propan-2-yl) acetamide]
- genotoxicity, bacterial mutagenicity (Ames) assay (bacterial): not genotoxic
- Maternal Body Weight Change GD 6-9 (Sprague-Dawley rats; 15 mg base/kg/day): 10.0 g
- Maternal Body Weight Change GD 6-18 (Sprague-Dawley rats; 15 mg base/kg/day): 93.8 g
- Maternal Body Weight Change GD 6-20 (Sprague-Dawley rats; 15 mg base/kg/day): 127.9 g
- Maternal Body Weight Change GD 18-20 (Sprague-Dawley rats; 15 mg base/kg/day): 34.0 g
- Maternal Body Weight GD 9 (Sprague-Dawley rats; 15 mg base/kg/day): 231.7 g
- Maternal Body Weight GD 12 (Sprague-Dawley rats; 15 mg base/kg/day): 257.0 g
- Maternal Body Weight GD 15 (Sprague-Dawley rats; 15 mg base/kg/day): 272.8 g
- Maternal Body Weight GD 18 (Sprague-Dawley rats; 15 mg base/kg/day): 315.5 g
- Maternal Body Weight GD 20 (Sprague-Dawley rats; 15 mg base/kg/day): 349.6 g
- Maternal Food Consumption GD 6-9 (Sprague-Dawley rats; 15 mg base/kg/day): 19.0
- Maternal Food Consumption GD 6-18 (Sprague-Dawley rats; 15 mg base/kg/day): 22.6
- Maternal Food Consumption GD 6-20 (Sprague-Dawley rats; 15 mg base/kg/day): 23.2
- Maternal Food Consumption GD 18-20 (Sprague-Dawley rats; 15 mg base/kg/day): 27.3
- Mean Fetal Body Weight Females (Sprague-Dawley rats; 15 mg base/kg/day): 4.00 g
- Mean Fetal Body Weight Genders Combined (Sprague-Dawley rats; 15 mg base/kg/day): 4.10 g
- Mean Fetal Body Weight Males (Sprague-Dawley rats; 15 mg base/kg/day): 4.19 g
- Adjusted Final Body Weight, Mean (Sprague-Dawley rats; 15 mg base/kg/day (N = 25)): 278.5 g
- Adjusted Weight Change From Day 6, Mean (Sprague-Dawley rats; 15 mg base/kg/day (N = 25)): 56.8
- Final Body Weight, Mean (Sprague-Dawley rats; 15 mg base/kg/day (N = 25)): 349.6 g
- Gravid Uterine Weight, Mean (Sprague-Dawley rats; 15 mg base/kg/day (N = 25)): 71.0 g
- Discharge, Brown, Vulva, times observed/animals (Sprague-Dawley rats; 15 mg base/kg/day, GD 6-20): 1/1
- Discharge, Red, Vulva, times observed/animals (Sprague-Dawley rats; 15 mg base/kg/day, GD 6-20): 0/0
- Ear/portion of ear missing, Ear/left, times observed/animals (Sprague-Dawley rats; 15 mg base/kg/day, GD 6-20): 13/1
- Hair sparse, Abdominal region, times observed/animals (Sprague-Dawley rats; 15 mg base/kg/day, GD 6-20): 7/1
- Hair sparse, Cervical region, times observed/animals (Sprague-Dawley rats; 15 mg base/kg/day, GD 6-20): 0/0
- Hair sparse, Forefoot/left, times observed/animals (Sprague-Dawley rats; 15 mg base/kg/day, GD 6-20): 4/2
- Hair sparse, Forefoot/right, times observed/animals (Sprague-Dawley rats; 15 mg base/kg/day, GD 6-20): 0/0
- Hair sparse, Forelimb/left, times observed/animals (Sprague-Dawley rats; 15 mg base/kg/day, GD 6-20): 12/3
- Hair sparse, Forelimb/right, times observed/animals (Sprague-Dawley rats; 15 mg base/kg/day, GD 6-20): 17/3
- Hair sparse, Hind limb/left, times observed/animals (Sprague-Dawley rats; 15 mg base/kg/day, GD 6-20): 0/0
- Hair sparse, Hind limb/right, times observed/animals (Sprague-Dawley rats; 15 mg base/kg/day, GD 6-20): 0/0
- Hair sparse, Lumbar region, times observed/animals (Sprague-Dawley rats; 15 mg base/kg/day, GD 6-20): 0/0
- Hair sparse, Thoracic region, times observed/animals (Sprague-Dawley rats; 15 mg base/kg/day, GD 6-20): 0/0
- Scabbed area, Face, times observed/animals (Sprague-Dawley rats; 15 mg base/kg/day, GD 6-20): 7/1
- Scabbed area, Forelimb/right, times observed/animals (Sprague-Dawley rats; 15 mg base/kg/day, GD 6-20): 4/1
- Scabbed area, Tail, times observed/animals (Sprague-Dawley rats; 15 mg base/kg/day, GD 6-20): 0/0
- Scabbed area, Thoracic region, times observed/animals (Sprague-Dawley rats; 15 mg base/kg/day, GD 6-20): 1/1
- Tail missing - portion, times observed/animals (Sprague-Dawley rats; 15 mg base/kg/day, GD 6-20): 0/0
- Maternal Body Weight Change GD 6-9 (Sprague-Dawley rats; 50 mg base/kg/day): 6.2^b g
- Maternal Body Weight Change GD 6-18 (Sprague-Dawley rats; 50 mg base/kg/day): 78.8^b g
- Maternal Body Weight Change GD 6-20 (Sprague-Dawley rats; 50 mg base/kg/day): 115.9^b g
- Maternal Body Weight Change GD 18-20 (Sprague-Dawley rats; 50 mg base/kg/day): 37.1 g
- Maternal Body Weight GD 9 (Sprague-Dawley rats; 50 mg base/kg/day): 225.5^a g
- Maternal Body Weight GD 12 (Sprague-Dawley rats; 50 mg base/kg/day): 246.3^b g
- Maternal Body Weight GD 15 (Sprague-Dawley rats; 50 mg base/kg/day): 262.6^b g
- Maternal Body Weight GD 18 (Sprague-Dawley rats; 50 mg base/kg/day): 298.1^b g
- Maternal Body Weight GD 20 (Sprague-Dawley rats; 50 mg base/kg/day): 335.2^b g
- Maternal Food Consumption GD 6-9 (Sprague-Dawley rats; 50 mg base/kg/day): 15.5^b
- Maternal Food Consumption GD 6-18 (Sprague-Dawley rats; 50 mg base/kg/day): 20.0^b
- Maternal Food Consumption GD 6-20 (Sprague-Dawley rats; 50 mg base/kg/day): 21.3^b
- Maternal Food Consumption GD 18-20 (Sprague-Dawley rats; 50 mg base/kg/day): 29.0
- Mean Fetal Body Weight Females (Sprague-Dawley rats; 50 mg base/kg/day): 3.94 g
- Mean Fetal Body Weight Genders Combined (Sprague-Dawley rats; 50 mg base/kg/day): 4.06 g
- Mean Fetal Body Weight Males (Sprague-Dawley rats; 50 mg base/kg/day): 4.19 g
- Adjusted Final Body Weight, Mean (Sprague-Dawley rats; 50 mg base/kg/day (N = 25)): 266.4^b g
- Adjusted Weight Change From Day 6, Mean (Sprague-Dawley rats; 50 mg base/kg/day (N = 25)): 47.1^b
- Final Body Weight, Mean (Sprague-Dawley rats; 50 mg base/kg/day (N = 25)): 335.2^b g
- Gravid Uterine Weight, Mean (Sprague-Dawley rats; 50 mg base/kg/day (N = 25)): 68.8 g
- Discharge, Brown, Vulva, times observed/animals (Sprague-Dawley rats; 50 mg base/kg/day, GD 6-20): 1/1
- Discharge, Red, Vulva, times observed/animals (Sprague-Dawley rats; 50 mg base/kg/day, GD 6-20): 4/4
- Ear/portion of ear missing, Ear/left, times observed/animals (Sprague-Dawley rats; 50 mg base/kg/day, GD 6-20): 0/0
- Hair sparse, Abdominal region, times observed/animals (Sprague-Dawley rats; 50 mg base/kg/day, GD 6-20): 0/0
- Hair sparse, Cervical region, times observed/animals (Sprague-Dawley rats; 50 mg base/kg/day, GD 6-20): 8/1
- Hair sparse, Forefoot/left, times observed/animals (Sprague-Dawley rats; 50 mg base/kg/day, GD 6-20): 0/0
- Hair sparse, Forefoot/right, times observed/animals (Sprague-Dawley rats; 50 mg base/kg/day, GD 6-20): 0/0
- Hair sparse, Forelimb/left, times observed/animals (Sprague-Dawley rats; 50 mg base/kg/day, GD 6-20): 10/2
